From ChEMBL document CHEMBL1201862, “PubChem BioAssay data set” (2004)
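Exposure lasted 48 hours, with cells grown in 96-well plates and compounds tested at five concentrations. Abbreviation: GI50, concentration required for 50% inhibition of growth.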 Active and inactive are the calls of the source. Cut-off read from the data, not from the text of the source: active = GI50 up to about 1.1 µM and inactive = higher.

Tests used:
Assay in all cases: DTP human tumour cell line panel, 48 h
HL-60 = system: HL-60
SF-295 = system: SF-295
HOP-18 = system: HOP-18
786-0 = system: 786-0
ACHN = system: ACHN
OVCAR-5 = system: OVCAR-5
KM-20L2 = system: KM-20L2
HOP-62 = system: HOP-62
SK-OV-3 = system: SK-OV-3
EKVX = system: EKVX
HCC 2998 = system: HCC 2998
NCI-H226 = system: NCI-H226
OVCAR-3 = system: OVCAR-3
UACC-62 = system: UACC-62
HT-29 = system: HT-29
DMS-114 = system: DMS-114
SNB-78 = system: SNB-78
SNB-19 = system: SNB-19
CAKI-1 = system: CAKI-1
U-251 = system: U-251
SK-MEL-28 = system: SK-MEL-28
KM12 = system: KM12
UACC-257 = system: UACC-257
K562 = system: K562
SF-539 = system: SF-539
A498 = system: A498
SN12C = system: SN12C
DMS-273 = system: DMS-273
RPMI-8226 = system: RPMI-8226
SK-MEL-2 = system: SK-MEL-2
OVCAR-8 = system: OVCAR-8
RXF 393 = system: RXF 393
HOP-92 = system: HOP-92
M14 = system: M14
IGROV-1 = system: IGROV-1
HCT-15 = system: HCT-15
Malme-3M = system: Malme-3M
MOLT-4 = system: MOLT-4
NCI-H23 = system: NCI-H23
SW-620 = system: SW-620
TK-10 = system: TK-10
LXFL 529 = system: LXFL 529
DLD-1 = system: DLD-1
NCI-H522 = system: NCI-H522
RXF 631 = system: RXF 631
SNB-75 = system: SNB-75
HCT-116 = system: HCT-116
A549 = system: A549
UO-31 = system: UO-31
OVCAR-4 = system: OVCAR-4
SK-MEL-5 = system: SK-MEL-5
LOX IMVI = system: LOX IMVI
CCRF-CEM = system: CCRF-CEM
NCI-H460 = system: NCI-H460
SF-268 = system: SF-268
COLO 205 = system: COLO 205
M19-MEL = system: M19-MEL
XF498 = system: XF498
SR = system: SR

## CC1S(=O)(=O)OCCOS1(=O)=O
HL-60
  GI50: 29.7 µM (inactive)
SF-295
  GI50: 50.4 µM (inactive)
HOP-18
  GI50: > 100 µM (inactive)
786-0
  GI50: 46.2 µM (inactive)
ACHN
  GI50: 46.5 µM (inactive)
OVCAR-5
  GI50: > 100 µM (inactive)
KM-20L2
  GI50: > 100 µM (inactive)
HOP-62
  GI50: > 100 µM (inactive)
SK-OV-3
  GI50: > 100 µM (inactive)
EKVX
  GI50: > 100 µM (inactive)
HCC 2998
  GI50: > 100 µM (inactive)
NCI-H226
  GI50: > 100 µM (inactive)
OVCAR-3
  GI50: 74 µM (inactive)
UACC-62
  GI50: 22.6 µM (inactive)
HT-29
  GI50: > 100 µM (inactive)
DMS-114
  GI50: 39.2 µM (inactive)
SNB-78
  GI50: > 100 µM (inactive)
SNB-19
  GI50: 39.7 µM (inactive)
CAKI-1
  GI50: 53.3 µM (inactive)
U-251
  GI50: 28.8 µM (inactive)
SK-MEL-28
  GI50: > 100 µM (inactive)
KM12
  GI50: > 100 µM (inactive)
UACC-257
  GI50: > 94.2 µM (inactive)
K562
  GI50: > 100 µM (inactive)
SF-539
  GI50: 46.6 µM (inactive)
A498
  GI50: > 100 µM (inactive)
SN12C
  GI50: 77.4 µM (inactive)
DMS-273
  GI50: 60 µM (inactive)
RPMI-8226
  GI50: > 100 µM (inactive)
SK-MEL-2
  GI50: > 100 µM (inactive)
OVCAR-8
  GI50: > 100 µM (inactive)
RXF 393
  GI50: > 73.5 µM (inactive)
HOP-92
  GI50: > 100 µM (inactive)
M14
  GI50: > 100 µM (inactive)
IGROV-1
  GI50: > 100 µM (inactive)
HCT-15
  GI50: > 100 µM
Malme-3M
  GI50: > 100 µM (inactive)
MOLT-4
  GI50: 18 µM (inactive)
NCI-H23
  GI50: > 76.9 µM (inactive)
SW-620
  GI50: > 100 µM (inactive)
TK-10
  GI50: > 100 µM (inactive)
LXFL 529
  GI50: > 100 µM (inactive)
DLD-1
  GI50: > 100 µM (inactive)
NCI-H522
  GI50: > 78 µM (inactive)
RXF 631
  GI50: 31.7 µM (inactive)
SNB-75
  GI50: 67.9 µM (inactive)
HCT-116
  GI50: > 95.7 µM (inactive)
A549
  GI50: > 95.5 µM (inactive)
UO-31
  GI50: > 100 µM (inactive)
OVCAR-4
  GI50: > 100 µM (inactive)
SK-MEL-5
  GI50: 50.1 µM (inactive)
LOX IMVI
  GI50: 52.2 µM (inactive)
CCRF-CEM
  GI50: 50 µM (inactive)
NCI-H460
  GI50: 31.7 µM (inactive)
SF-268
  GI50: 32.1 µM (inactive)
COLO 205
  GI50: > 100 µM (inactive)
M19-MEL
  GI50: > 100 µM (inactive)

## O=[N+]([O-])c1ccc(Cc2nc3ccccc3s2)cc1
HL-60
  GI50: 63.4 µM (inactive)
SF-295
  GI50: > 100 µM (inactive)
HOP-18
  GI50: > 100 µM (inactive)
786-0
  GI50: > 100 µM (inactive)
ACHN
  GI50: > 100 µM (inactive)
XF498
  GI50: > 100 µM (inactive)
OVCAR-5
  GI50: > 100 µM (inactive)
KM-20L2
  GI50: > 100 µM (inactive)
HOP-62
  GI50: > 100 µM (inactive)
SK-OV-3
  GI50: > 100 µM (inactive)
EKVX
  GI50: > 100 µM (inactive)
HCC 2998
  GI50: > 100 µM (inactive)
NCI-H226
  GI50: > 100 µM (inactive)
OVCAR-3
  GI50: > 100 µM (inactive)
UACC-62
  GI50: 68.1 µM (inactive)
SR
  GI50: 46 µM (inactive)
HT-29
  GI50: 66.5 µM (inactive)
DMS-114
  GI50: 39.5 µM (inactive)
SNB-78
  GI50: > 100 µM (inactive)
SNB-19
  GI50: > 100 µM (inactive)
CAKI-1
  GI50: > 100 µM (inactive)
U-251
  GI50: 44.8 µM (inactive)
SK-MEL-28
  GI50: > 100 µM (inactive)
KM12
  GI50: > 100 µM (inactive)
UACC-257
  GI50: > 100 µM (inactive)
K562
  GI50: 43.7 µM (inactive)
SF-539
  GI50: 26.8 µM (inactive)
A498
  GI50: > 100 µM (inactive)
SN12C
  GI50: 36.1 µM (inactive)
DMS-273
  GI50: 82.4 µM (inactive)
RPMI-8226
  GI50: 49.4 µM (inactive)
SK-MEL-2
  GI50: > 100 µM (inactive)
OVCAR-8
  GI50: 91.4 µM (inactive)
RXF 393
  GI50: > 100 µM (inactive)
HOP-92
  GI50: > 100 µM (inactive)
M14
  GI50: 99.8 µM (inactive)
IGROV-1
  GI50: > 100 µM (inactive)
HCT-15
  GI50: > 100 µM
Malme-3M
  GI50: > 100 µM (inactive)
MOLT-4
  GI50: 75.2 µM (inactive)
NCI-H23
  GI50: > 100 µM (inactive)
SW-620
  GI50: 59.3 µM (inactive)
TK-10
  GI50: > 100 µM (inactive)
LXFL 529
  GI50: 61 µM (inactive)
DLD-1
  GI50: 41.6 µM (inactive)
NCI-H522
  GI50: 60.4 µM (inactive)
SNB-75
  GI50: > 100 µM (inactive)
HCT-116
  GI50: 38.9 µM (inactive)
A549
  GI50: > 100 µM (inactive)
UO-31
  GI50: > 100 µM (inactive)
OVCAR-4
  GI50: > 100 µM (inactive)
SK-MEL-5
  GI50: 87.3 µM (inactive)
CCRF-CEM
  GI50: 33.3 µM (inactive)
NCI-H460
  GI50: > 100 µM (inactive)
SF-268
  GI50: 74.1 µM (inactive)
COLO 205
  GI50: > 100 µM (inactive)
M19-MEL
  GI50: 71.3 µM (inactive)
